Laboratory results published in US20110003777A1, “Methods of Treatment Employing Prolonged Continuous Infusion of Belinostat” (TOPOTARGET A/S, priority 2008, published 2011).

How the values were obtained:
[1] = test system: P388: mouse lymphocytic leukemia; test: Clonogenic assay with increasing time of exposure, P388; type: cell-based
Excerpt: (§1) The data are summarised in FIG. 1, which is a graph of EC50 (μM), as determined using the clonogenic assay described above, as a function of exposure time (hours) for the four cells lines, P388 (diamonds), A2780 (circles), NYH (triangles), and L1210 (squares).

[2] = test system: A2780: human ovarian cancer; test: Clonogenic assay with increasing time of exposure, A2780; type: cell-based
Excerpt: as §1

[3] = test system: NYH: human small cell lung cancer; test: Clonogenic assay with increasing time of exposure, NYH; type: cell-based
Excerpt: as §1

[4] = test system: L1210: mouse lymphocytic leukemia; test: Clonogenic assay with increasing time of exposure, L1210; type: cell-based
Excerpt: as §1

[5] = test system: human patient with AML (acute myeloid leukemia); test: Continuous intravenous infusion in a human subject with AML; type: in vivo; details: for Blasts (absolute) / WBC / Platelets: peripheral blood
Excerpt: The patient was a person with AML (acute myeloid leukemia). The patient had arterial hypertension since 1986, hypothyroidism since 1997 (treated with levothyroxin), anorexia, an enlarged spleen, night sweats since 2007, allergic exanthema since January 2008, and conjunctival hemorrhage from February 2007. AML was first diagnosed in December 2006. Prior treatment included four courses of decitabine from July 2007 to November 2007.

[6] = test system: patients with various solid-tumours; details: intravenous bolus over 30 minutes, 150 to 1200 mg/m^2, solid tumours (Steele et al., 2008); cited from earlier work
[7] = test system: patients; details: 30 minute intravenous bolus with standard dose carboplatin or paclitaxel (Sinha et al., 2007); cited from earlier work
[8] = reported; cited from earlier work
[9] = water at physiological pH; cited from earlier work
[10] = Day 15, before starting the 2nd cycle

For O=C(/C=C/c1cccc(S(=O)(=O)Nc2ccccc2)c1)NO [Belinostat™, (E)-N-hydroxy-3-(3-phenylsulfamoyl-phenyl)-acrylamide], the EC50 values ([1]; P388, longer incubation (≧16 hours)) was “markedly reduced”, the “activity in clonogenic assay” value ([1]; P388, short incubation times) was “weak activity” and the EC50 values ([2]; A2780, longer incubation (≧16 hours)) was “markedly reduced”. The “activity in clonogenic assay” value ([2]; A2780, short incubation times) was “weak activity”, the EC50 values ([3]; longer incubation (≧16 hours)) was “markedly reduced” and the “activity in clonogenic assay” value ([3]; short incubation times) was “weak activity”. The EC50 values ([4]; L1210, longer incubation (≧16 hours)) was “markedly reduced”, the “activity in clonogenic assay” value ([4]; L1210, short incubation times) was “weak activity” and the “tolerability of first infusion” value ([5]; 800 mg/m^2/d continuous i.v. infusion, first cycle) was “tolerated well”. The “time of infusion at interruption due to fever (39° C.), dyspnea, and cough” value ([5]; 800 mg/m^2/d, first cycle, planned 48 hours) was 37 h, the “tolerability of second cycle” value ([5]; 800 mg/m^2/d, full 48 hour cycle on Day 15 and Day 16) was “no reports of serious adverse events” and the “Platelet counts following second cycle” value ([5]; after second 48 hour cycle) was “moderately depressed”. For the same compound, the “tolerability and efficacy of continuous infusion” value ([5]; human, continuous infusion) was “feasible, well tolerated and efficacious”, the “Blasts (absolute)” value ([5]; 24 h, pre-treatment 2.4) was 5e+08 L⁻¹ and the WBC ([5]; 24 h, pre-treatment 3.8) was 1.3e+09 L⁻¹. For the same compound, the “Blasts (absolute)” value ([5]; 48 h, pre-treatment 2.4) was 2e+08 L⁻¹, the WBC ([5]; 48 h, pre-treatment 3.8) was 6e+08 L⁻¹ and the “Blasts (absolute)” value ([5]; Day 5) was 1.6e+09 L⁻¹. The Platelets ([5]; Day 5) was 8e+10 L⁻¹, the WBC ([5]; Day 5) was 2.8e+09 L⁻¹ and the “Blasts (absolute)” value ([5]; Day 8) was 2e+09 L⁻¹. The Platelets ([5]; Day 8) was 3.9e+10 L⁻¹, the WBC ([5]; Day 8) was 4.2e+09 L⁻¹ and the “Blasts (absolute)” value [5, 10] was 1.03e+10 L⁻¹. For the same compound, the Platelets [5, 10] was 7.3e+10 L⁻¹, the WBC [5, 10] was 1.21e+10 L⁻¹ and the “Blasts (absolute)” value ([5]; Day 19 (after 2nd cycle)) was 3.8e+09 L⁻¹. The Platelets ([5]; Day 19 (after 2nd cycle)) was 4.2e+10 L⁻¹, the WBC ([5]; Day 19 (after 2nd cycle)) was 4.9e+09 L⁻¹ and the “Blasts (absolute)” value ([5]; Day 22) was 5.6e+09 L⁻¹. The Platelets ([5]; Day 22) was 3.3e+10 L⁻¹, the WBC ([5]; Day 22) was 7.4e+09 L⁻¹ and the “Blasts (absolute)” value ([5]; Day 26) was 1.26e+10 L⁻¹. For the same compound, the Platelets ([5]; Day 26) was 3.4e+10 L⁻¹, the WBC ([5]; Day 26) was 1.57e+10 L⁻¹ and the maximum tolerated dose [6] was 1000 mg/m^2. The maximum tolerated dose [7] was 1000 mg/m^2/d, the plasma half-life [8] was 47 to 86 min and the solubility in water [9] was “sparingly soluble”.
